From PubChem BioAssay (NCI)
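Growth conditions: 96-well plates. Treatment: test compound, 48 hours, 5 concentrations. Analysis: linear interpolation between bracketing concentrations; unreached endpoints set to highest concentration. GI50 marks 50% less growth. The concentration for full growth arrest is given as TGI.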

Columns and labels:
Assay in all cases: NCI-60 cell line screen, 48 h
UO-31 renal = test system: UO-31 renal
NCI-H23 lung = test system: NCI-H23 lung
OVCAR-4 ovarian = test system: OVCAR-4 ovarian
HCC-2998 colon = test system: HCC-2998 colon
HOP-92 NSCLC = test system: HOP-92 NSCLC
786-0 renal = test system: 786-0 renal
NCI-H460 lung = test system: NCI-H460 lung
SR leukemia = test system: SR leukemia
SF-539 CNS = test system: SF-539 CNS
SN12C renal = test system: SN12C renal

Structure (SMILES) | TGI (UO-31 renal) [µM] | TGI (NCI-H23 lung) [µM] | TGI (OVCAR-4 ovarian) [µM] | TGI (HCC-2998 colon) [µM] | TGI (HOP-92 NSCLC) [µM] | TGI (786-0 renal) [µM] | TGI (NCI-H460 lung) [µM] | TGI (SR leukemia) [µM] | TGI (SF-539 CNS) [µM] | TGI (SN12C renal) [µM] | GI50 (UO-31 renal) [µM] | GI50 (NCI-H23 lung) [µM] | GI50 (OVCAR-4 ovarian) [µM] | GI50 (HCC-2998 colon) [µM] | GI50 (HOP-92 NSCLC) [µM] | GI50 (786-0 renal) [µM] | GI50 (NCI-H460 lung) [µM] | GI50 (SR leukemia) [µM] | GI50 (SF-539 CNS) [µM] | GI50 (SN12C renal) [µM]
CC1(C)C(=O)/C=C\C(=O)C(C)(C)C(=O)/C=C\C(=O)C(C)(C)C2=CC=C(O2)C(C)(C)C(=O)/C=C\C1=O | 28.3 | 15.6 | 14.8 | 24.1 | 3.9 | 12.7 | 46.8 | 4.05 | 17.7 | 14.1 | – | – | – | – | – | – | – | – | – | –
CSc1ccc(C(=O)/C=C/c2ccc(Cl)cc2Cl)cc1 | 81.7 | 57.4 | 77.2 | 35.8 | > 100 | 36.2 | 96.4 | 0.909 | 46.9 | > 100 | 22.4 | 21.9 | 21.8 | 17.2 | 40.2 | 16.9 | 26.3 | 0.351 | 22 | 42.9
COc1ccc(-c2[nH]ncc2Nc2cc(OC)c(OC)c(OC)c2)cc1 | > 100 | > 100 | > 100 | 37.9 | > 100 | > 65.4 | > 63.6 | > 100 | – | > 100 | 3.29 | 4.04 | 5.01 | 2.17 | > 62.9 | 6.2 | 2.68 | 0.36 | – | 7.18
O=C(CCc1ccccc1)CC1OC(=O)C(Cl)=C1Cl (centres undefined) | 34 | 53.4 | > 100 | 32.6 | 41.1 | 37.5 | 96.2 | > 100 | 76.7 | 38.3 | – | – | – | – | – | – | – | – | – | –
O=C(C(=CN1CCN(C(=O)c2ccco2)C1=S)C(=O)c1ccccc1)c1ccccc1 | 18.7 | 14 | 42.8 | – | > 50 | 19.2 | 11.6 | 6.72 | – | 14.4 | 8.71 | 6.95 | 16.1 | – | 27 | 8.23 | 2.35 | 1.28 | – | 6.07
Cc1cc(N(CCNc2ccnc3cc(Cl)ccc23)Cc2ccc3c(c2)OCO3)nc(N2CCCC2)n1 | 2.99 | 6.25 | 3.24 | 3.9 | 2.86 | 2.85 | – | 0.635 | 3.09 | 3.87 | 1.26 | 2 | 1.39 | 1.89 | 0.695 | 1.33 | – | 0.25 | 1.6 | 1.5
Cc1cc(N2CCOCC2)nc(NCc2cc(Nc3ccnc4cc(Cl)ccc34)ccc2F)n1 | 3 | 4.2 | 3.69 | 3.26 | – | 3.35 | 3.57 | 3.82 | 3.28 | 3.66 | 1.57 | 1.86 | 1.32 | 1.67 | – | 1.83 | 1.83 | 1.61 | 1.79 | 1.83
Cc1c(-c2ccccn2)ccc2ccccc12 | 82.9 | > 100 | – | > 100 | > 100 | > 100 | > 100 | > 100 | > 100 | > 100 | – | – | – | – | – | – | – | – | – | –
NS(=O)(=O)c1ccc(N=Nc2c[nH]c(=O)c(O)c2)cc1 | > 100 | > 100 | > 100 | – | > 100 | > 100 | > 100 | > 100 | > 100 | > 100 | – | – | – | – | – | – | – | – | – | –
Oc1[nH]c2ccccc2c1C=Nc1ccc(-n2cncn2)cc1 | > 25 | > 25 | > 25 | > 25 | – | > 25 | > 25 | > 25 | > 25 | > 25 | > 17.7 | > 21.9 | > 18.9 | > 25 | – | > 25 | > 23 | 19 | > 25 | 14.6
CC1=C(C(=O)Nc2ccc(Cl)c(Cl)c2)C(c2cccc(Cl)c2)NC(=S)N1 (centres undefined) | 24.9 | 20.9 | 42.5 | – | > 50 | 18.3 | > 50 | > 50 | – | 18.3 | 11.1 | 9.79 | 13.4 | – | 14.2 | 8.79 | 24.3 | 17.1 | – | 8.4
COc1cc(-c2ccc[nH]2)[nH]c1/C=C1\N=C(C)C(CC(=O)OCC(C)(C)C)=C1C | 0.382 | 2.22 | 2.06 | 1.75 | 0.531 | 1.53 | 1.35 | 0.617 | 1.6 | – | 0.173 | 0.441 | 0.331 | 0.368 | 0.11 | 0.3 | 0.137 | 0.122 | 0.357 | –
Clc1ccc(-c2nc(NCc3ccco3)c3ccccc3n2)c(Cl)c1 | > 100 | 60.5 | > 100 | 46.9 | 74.7 | 56.1 | > 100 | 44.7 | – | 44.9 | 26.8 | 17.1 | 43.3 | 18.2 | 4.94 | 20 | 32.9 | 10.1 | – | 16.1
CCCCCCCCN=C(NCCCCCCCC)SCc1cccc2ccccc12 | 2.86 | 2.52 | 2.64 | 3.05 | 2.28 | 2.7 | 3.38 | 2.39 | – | 2.63 | 1.27 | 1.14 | 1.32 | 1.62 | 1.03 | 1.24 | 1.69 | 0.427 | – | 1.27
NC(=O)c1ncn(C2OC(CO)C(O)C2O)c1O (centres undefined) | > 100 | – | > 100 | > 100 | > 100 | > 100 | > 100 | > 100 | > 100 | > 100 | – | – | – | – | – | – | – | – | – | –
N=C(CC(=O)Nc1ccccn1)c1ccccc1 | > 100 | > 100 | > 100 | – | > 100 | > 100 | > 100 | > 100 | > 100 | > 100 | – | – | – | – | – | – | – | – | – | –
